# Results published in patent US20240228489A1, “POSITIVE ALLOSTERIC MODULATORS OF THE MUSCARINIC ACETYLCHOLINE RECEPTOR M1” (Vanderbilt University, priority 2021, published 2024).
# Tests used:
# [1] = molecular target: T1, human mAChR M1 (Homo sapiens, UniProt P11229); experiment: mAChR M1 cell-based functional assay (calcium mobilization), PAM mode: increase in the EC20 acetylcholine response
# T1 sequence (P11229 1-460): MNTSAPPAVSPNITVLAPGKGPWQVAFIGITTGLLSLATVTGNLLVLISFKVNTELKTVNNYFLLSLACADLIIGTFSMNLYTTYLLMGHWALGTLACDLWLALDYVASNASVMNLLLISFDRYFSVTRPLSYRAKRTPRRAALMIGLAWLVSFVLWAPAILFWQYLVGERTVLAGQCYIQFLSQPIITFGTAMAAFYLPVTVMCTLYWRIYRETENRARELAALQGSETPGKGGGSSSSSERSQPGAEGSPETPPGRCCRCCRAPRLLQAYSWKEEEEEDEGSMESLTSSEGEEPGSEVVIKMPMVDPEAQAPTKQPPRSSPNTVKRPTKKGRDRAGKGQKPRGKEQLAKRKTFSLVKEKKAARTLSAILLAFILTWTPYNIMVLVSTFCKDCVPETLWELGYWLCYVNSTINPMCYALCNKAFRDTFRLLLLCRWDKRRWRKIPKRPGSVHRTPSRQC
# Procedure, shortened: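 CHO-K1 cells stably expressing hM1, Fluo-4 loaded, read by FDSS calcium flux at 1 Hz. Compound (11-point 1:3 CRC) added at 4 s, EC20 acetylcholine at 144 s, EC80 at 230 s. PAM activity taken as concentration-dependent increase in EC20 ACh response, fitted by four-parameter logistic for EC50/Emax.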
# [2] = molecular target: T1, human mAChR M1; experiment: mAChR M1 cell-based functional assay (calcium mobilization), agonist mode: compound alone, Emax relative to acetylcholine maximum; settings: for Agonist Activity Human M1 EC50 / EC50: human mAChR M1; for Emax: relative to the maximum for acetylcholine
# Procedure, shortened: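 CHO-K1 cells stably expressing hM1 were loaded with Fluo-4 AM, and calcium flux was read as fluorescence ratio. Compound was added alone from an 11-point 1:3 curve, and the agonist response was fitted with a four-parameter logistic. Emax is expressed relative to the acetylcholine maximum.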
SMILES,EC50 [1],Emax [1],Agonist Activity Human M1 EC50 [2],Emax [2],EC50 [2]
"[2H]C1([2H])c2ncccc2C(=O)N1Cc1c(F)cc(-c2ccc(C(F)(F)F)c3nn(C)cc23)cc1OCC(C)C [Compound 216, 6-(2-fluoro-6-isobutoxy-4-(2-methyl-7-(trifluoromethyl)-2H-indazol-4-yl)benzyl)-6,7-dihydro-5H-pyrrolo[3,4-b]pyridin-5-one-7,7-d2]",3180 nM,83%,Inactive,2%,–
"[2H]C1([2H])c2ncccc2C(=O)N1Cc1c(F)cc(-c2ccnc3nn(C)cc23)cc1OCC(C)C [Compound 217, 6-(2-fluoro-6-isobutoxy-4-(2-methyl-2H-pyrazolo[3,4-b]pyridin-4-yl)benzyl)-6,7-dihydro-5H-pyrrolo[3,4-b]pyridin-5-one-7,7-d2]",207 nM,78%,–,23%,2860 nM
"[2H]C1([2H])c2ncccc2C(=O)N1Cc1c(F)cc(-c2ccc(OCCOC)c3nn(C)cc23)cc1OCC(C)C [Compound 218, 6-(2-fluoro-6-isobutoxy-4-(7-(2-methoxyethoxy)-2-methyl-2H-indazol-4-yl)benzyl)-6,7-dihydro-5H-pyrrolo[3,4-b]pyridin-5-one-7,7-d2]",516 nM,79%,–,25%,7760 nM
"[2H]C1([2H])c2ncccc2C(=O)N1Cc1c(F)cc(-c2cccc3nn(C)cc23)cc1C(F)(F)F [Compound 225, 6-(2-fluoro-4-(2-methyl-2H-indazol-4-yl)-6-(trifluoromethyl)benzyl)-6,7-dihydro-5H-pyrrolo[3,4-b]pyridin-5-one-7,7-d2]",1370 nM,58%,Inactive,3%,–
"[2H]C1([2H])c2ncccc2C(=O)N1Cc1c(F)cc(-c2cccc3nn(C([2H])([2H])[2H])cc23)cc1C(F)(F)F [Compound 226, 6-(2-fluoro-4-(2-(methyl-d3)-2H-indazol-4-yl)-6-(trifluoromethyl)benzyl)-6,7-dihydro-5H-pyrrolo[3,4-b]pyridin-5-one-7,7-d2]",1360 nM,54%,Inactive,2%,–
"[2H]C1([2H])c2ncccc2C(=O)N1Cc1c(Cl)cc(-c2cccc3nn(C([2H])([2H])[2H])cc23)cc1Cl [Compound 228, 6-(2,6-dichloro-4-(2-(methyl--d3)-2H-indazol-4-yl)benzyl)-6,7-dihydro-5H-pyrrolo[3,4-b]pyridin-5-one-7,7-d2]",380 nM,60%,Inactive,1%,–
"[2H]C1([2H])c2ncccc2C(=O)N1Cc1c(F)cc(-c2cccc3nn(C)cc23)cc1N(C)C [Compound 229, 6-(2-(dimethylamino)-6-fluoro-4-(2-methyl-2H-indazol-4-yl)benzyl)-6,7-dihydro-5H-pyrrolo[3,4-b]pyridin-5-one-7,7-d2]",≥ 10000 nM,42%,Inactive,4%,–
"[2H]C1([2H])c2ncccc2C(=O)N1Cc1c(F)cc(-c2cccc3nn(C)cc23)cc1OC [Compound 231, 6-(2-fluoro-6-methoxy-4-(2-methyl-2H-indazol-4-yl)benzyl)-6,7-dihydro-5H-pyrrolo[3,4-b]pyridin-5-one-7,7-d2]",806 nM,73%,Inactive,7%,–
"[2H]C1([2H])c2ncccc2C(=O)N1Cc1c(F)cc(-c2cccc3nn(C([2H])([2H])[2H])cc23)cc1OC [Compound 232, 6-(2-fluoro-6-methoxy-4-(2-(methyl-d3)-2H-indazol-4-yl)benzyl)-6,7-dihydro-5H-pyrrolo[3,4-b]pyridin-5-one-7,7-d2]",760 nM,80%,Inactive,8%,–
"[2H]C1([2H])c2ncccc2C(=O)N1Cc1ccc(-c2cccc3nn(C([2H])([2H])[2H])cc23)cc1C(C)C [Compound 234, 6-(2-isopropyl-4-(2-(methyl-d3)-2H-indazol-4-yl)benzyl)-6,7-dihydro-5H-pyrrolo[3,4-b]pyridin-5-one-7,7-d2]",≥ 10000 nM,42%,Inactive,1%,–
"[2H]C([2H])([2H])c1cc2c(-c3cc(F)c(CN4C(=O)c5cccnc5C4([2H])[2H])c(F)c3)cccn2n1 [Compound 236, 6-(2,6-Difluoro-4-(2-(methyl-d3)pyrazolo[1,5-a]pyridin-4-yl)benzyl)-6,7-dihydro-5H-pyrrolo[3,4-b]pyridin-5-one-7,7-d2]",745 nM,76%,–,22%,9560 nM

# Second part, led by results:
EC50 [1],Emax [1],Agonist Activity Human M1 EC50 [2],Emax [2],SMILES,EC50 [2]
490 nM,89%,Inactive,8%,"[2H]C1([2H])c2ncccc2C(=O)N1Cc1c(Cl)cc(-c2cccc3nn(C)cc23)cc1C1CC1 [Compound 219, 6-(2-chloro-6-cyclopropyl-4-(2-methyl-2H-indazol-4-yl)benzyl)-6,7-dihydro-5H-pyrrolo[3,4-]pyridin-5-one-7,7-d2]",–
472 nM,86%,Inactive,8%,"[2H]C1([2H])c2ncccc2C(=O)N1Cc1c(Cl)cc(-c2cccc3nn(C([2H])([2H])[2H])cc23)cc1C1CC1 [Compound 220, 6-(2-chloro-6-cyclopropyl-4-(2-(methyl-d3)-2H-indazol-4-yl)benzyl)-6,7-dihydro-5H-pyrrolo[3,4-b]pyridin-5-one-7,7-d2]",–
2690 nM,82%,Inactive,2%,"[2H]C1([2H])c2ncccc2C(=O)N1Cc1c(F)cc(-c2cccc3nn(C)cc23)cc1N1CCC1 [Compound 221, 6-(2-(azetidin-1-yl)-6-fluoro-4-(2-methyl-2H-indazol-4-yl)benzyl)-6,7-dihydro-5H-pyrrolo[3,4-b]pyridin-5-one-7,7-d2]",–
3780 nM,77%,Inactive,1%,"[2H]C1([2H])c2ncccc2C(=O)N1Cc1c(F)cc(-c2cccc3nn(C([2H])([2H])[2H])cc23)cc1N1CCC1 [Compound 222, 6-(2-(azetidin-1-yl)-6-fluoro-4-(2-(methyl-d3)-2H-indazol-4-yl)benzyl)-6,7-dihydro-5H-pyrrolo[3,4-b]pyridin-5-one-7,7-d2]",–
5240 nM,59%,Inactive,1%,"[2H]C1([2H])c2ncccc2C(=O)N1Cc1c(F)cc(-c2cccc3nn(C)cc23)cc1C1CCCC1 [Compound 223, 6-(2-cyclopentyl-6-fluoro-4-(2-methyl-2H-indazol-4-yl)benzyl)-6,7-dihydro-5H-pyrrolo[3,4-b]pyridin-5-one-7,7-d2]",–
6460 nM,62%,Inactive,1%,"[2H]C1([2H])c2ncccc2C(=O)N1Cc1c(F)cc(-c2cccc3nn(C([2H])([2H])[2H])cc23)cc1C1CCCC1 [Compound 224, 6-(2-cyclopentyl-6-fluoro-4-(2-(methyl-d3)-2H-indazol-4-yl)benzyl)-6,7-dihydro-5H-pyrrolo[3,4-b]pyridin-5-one-7,7-d2]",–
900 nM,63%,Inactive,1%,"[2H]C1([2H])c2ncccc2C(=O)N1Cc1c(Cl)cc(-c2cccc3nn(C)cc23)cc1Cl [Compound 227, 6-(2,6-dichloro-4-(2-methyl-2H-indazol-4-yl)benzyl)-6,7-dihydro-5H-pyrrolo[3,4-b]pyridin-5-one-7,7-d2]",–
≥ 10000 nM,38%,Inactive,3%,"[2H]C1([2H])c2ncccc2C(=O)N1Cc1c(F)cc(-c2cccc3nn(C([2H])([2H])[2H])cc23)cc1N(C)C [Compound 230, 6-(2-(dimethylamino)-6-fluoro-4-(2-(methyl-d3)-2H-indazol-4-yl)benzyl)-6,7-dihydro-5H-pyrrolo[3,4-b]pyridin-5-one-7,7-d2]",–
≥ 10000 nM,43%,Inactive,1%,"[2H]C1([2H])c2ncccc2C(=O)N1Cc1ccc(-c2cccc3nn(C)cc23)cc1C(C)C [Compound 233, 6-(2-isopropyl-4-(2-methyl-2H-indazol-4-yl)benzyl)-6,7-dihydro-5H-pyrrolo[3,4-b]pyridin-5-one-7,7-d2]",–
744 nM,73%,–,23%,"[2H]C1([2H])c2ncccc2C(=O)N1Cc1c(F)cc(-c2cccn3nc(C)cc23)cc1F [Compound 235, 6-(2,6-Difluoro-4-(2-methylpyrazolo[1,5-a]pyridin-4-yl)benzyl)-6,7-dihydro-5H-pyrrolo[3,4-b]pyridin-5-one-7,7-d2]",> 10000 nM
